What was measured:
Assay type in all cases: cell-based
[1] = tested on: Human Rhinovirus 16 (HRV16) in H1-HeLa cells; test: H1-HeLa HRV-CTG 384-well Assay (Ex. Y), HRV16; details: Rhinovirus A, 96 h; H1-HeLa cells, HRV16 MOI 0.25, 4 days, Celltiter-Glo; read-out: EC50 H1-HeLa_HRV16_HRV-CTG 384-well Assay (per Ex. Y)
From the text: (§1) Example Y: H1-HeLa HRV-CTG 384-well Assay
(§2) H1-Hela cell line (ATCC, Manassas, VA, Cat #CRL-1958) was maintained in Dulbecco's […] (DMEM) (Corning, New York, NY, Cat #15-018CM) supplemented with 10% fetal bovine serum (FBS) (Hyclone, Logan, UT, Cat #SH30071-03), and 1× Penicillin-Streptomycin-L-Glutamine (Corning, New York, NY, Cat #30-009-CI). Cells were passaged 2 times per week to maintain sub-confluent densities and were used for experiments at passage 5-30. The Human Rhinovirus 1B (HRV1B) (ATCC, Manassas, VA, Cat #VR-1645) , Human Rhinovirus 14 (HRV14) (ATCC, Manassas, VA, Cat #VR-284), and Human Rhinovirus 16 (HRV16) (ATCC, Manassas, VA, Cat #BR-283) was obtained through ATCC. Viral infection was monitored by determining viability of H1-HeLa cells as described below.
(§3) Test molecules are prepared in 100% DMSO in 384-well polypropylene plates (Greiner, Monroe, NC, Cat #784201) with 8 compounds per plate in grouped replicates of 4 at 10 serially diluted concentrations (1:3). The serially diluted compounds were transferred to low dead volume Echo plates (Labcyte, Sunnyvale, CA, Cat #LP-0200).
(§4) The test compounds were spotted to 384-well assay plates (Greiner, Monroe, NC, Cat#781091) at 200 nL per well using an Echo acoustic dispenser (Labcyte, Sunnyvale, CA). H1-HeLa cells were harvested and suspended in DMEM (supplemented with 2% FBS and 1× Penicillin-Streptomycin-L-Glutamine) and seeded to the pre-spotted assay plates at 5,000 cells per well in 30 μL. HRV1B, HRV14, and HRV16 was diluted in DMEM (supplemented with 2% FBS and 1× Penicillin-Streptomycin-L-Glutamine) at 97.1 million Infectious Units (IU) per mL, 151 million IU per mL and 221 million IU per mL respectively. 10 μL of virus per well was added to the assay plates containing cells and compounds, for an MOI of 0.5, 1.0, and 0.25 respectively. The assay plates were incubated for 4 days at 37° C. and 5% CO2. At the end of incubation, Celltiter-Glo (Promega, Madison, WI, Cat #(Ga7573) was prepared. The assay plates and Celltiter-Glo reagent were equilibrated to room temperature for at least 15 minutes. 40 μL per well of Celltiter-Glo reagent was added and the plates were incubated at room temperature for 15 minutes before reading the luminescence signal on an EnVision multimode plate reader (Perkin Elmer, Waltham, MA). Rupintrivir was used as positive control and DMSO was used as negative control. Values were normalized to the positive and negative controls (as 0% and 100% replication, respectively) and data was fitted using non-linear regression analysis by Gilead's dose response tool. The EC50 value for each compound was defined as the concentration reducing viral replication by 50%.

[2] = tested on: Human Rhinovirus 1B (HRV1B) in H1-HeLa cells; test: H1-HeLa HRV-CTG 384-well Assay (Ex. Y), HRV1B; details: Rhinovirus A, 96 h; H1-HeLa cells, HRV1B MOI 0.5, 4 days, Celltiter-Glo; read-out: EC50 H1-HeLa_HRV1B_HRV-CTG 384-well Assay (per Ex. Y)
From the text: as §1, §2, §3, §4

[3] = tested on: Respiratory syncytial virus recombinant with luciferase (RSV-Luc5) in HEp-2 cells; test: HEp-2 RSV-Luc5 384-well Assay (EC50 RSVFLUC Hep2-384 v2, Ex. V); details: human respiratory syncytial virus, HEp-2, 72 h, read-out: EC50 RSV FLuc Hep-2 384 V2 (per Ex. V)
From the text: Example V: HEp-2 RSV-Luc5 384-well Assay (EC50 RSVFLUC Hep2-384 v2)
HEp-2 cell line was purchased from ATCC (Manassas, VA Cat #CCL-23) and maintained in Dulbecco's […] (DMEM) (Corning, New York, NY, Cat #15-018CM) supplemented with 10% fetal bovine serum (FBS) (Hyclone, Logan, UT, Cat #SH30071-03) and 1× Penicillin-Streptonycin-L-Glutamine (Corning, New York, NY, Cat #30-009-CI). Cells were passaged 2 times per week to maintain sub-confluent densities and were used for experiments at passage 5-20. Respiratory syncytial virus recombinant with luciferase (RSV-Luc5) (≥1 ×107 TCID50/ml) was purchased from Microbiologics (Saint Cloud, MN). Viral replication was determined in HEp-2 cells in the following manner.
as §3, with “Compounds” for “Test molecules”
The test compounds were spotted to 384-well assay plates (Greiner, Monroe, NC, Cat#781091) at 200 nL per well. HEp-2 cells were harvested and suspended in DMEM (supplemented with 10% FBS and 1× Penicillin-Streptonycin-L-Glutamine) and seeded to the pre-spotted assay plates at 4,000 cells per well in 30 μL. RSV-Luc5 viruses were diluted in DMEM (supplemented with 10% FBS and 1× Penicillin-Streptomycin-L-Glutamine) at 200,000 Infectious Units (IU) per mL and 10 μL per well was added to the assay plates containing cells and compounds, for an MOI=0.5. The assay plates were incubated for 3 days at 37° C. and 5% CO2. At the end of incubation, One-Glo reagent (Promega, Madison, WI, Cat #E6120) was prepared. The assay plates and One-Glo reagent were equilibrated to room temperature for at least 15 minutes. 40 μL per well of One-Glo reagent was added and the plates were incubated at room temp for 15 minutes before reading the luminescence signal on an EnVision multimode plate reader (Perkin Elmer, Waltham, MA). Remdesivir was used as positive control and DMSO was used as negative control. Values were normalized to the positive and negative controls (as 0% and 100% replication, respectively) and data was fitted using non-linear regression analysis by Gilead's dose response tool. The EC50 value for each compound was then determined as the concentration reducing the viral replication by 50%.

[4] = tested on: Human Rhinovirus 14 (HRV14) in H1-HeLa cells; test: H1-HeLa HRV-CTG 384-well Assay (Ex. Y), HRV14; details: Rhinovirus B, 96 h; H1-HeLa cells, HRV14 MOI 1.0, 4 days, Celltiter-Glo; read-out: EC50 H1-HeLa_HRV14_HRV-CTG 384-well Assay (per Ex Y)
From the text: as §1, §2, §3, §4

Compound | EC50 [1] [µM] | EC50 [2] [µM] | EC50 [3] [µM] | EC50 [4] [µM]
Cc1ccc(C(=O)OC[C@@]2(C#N)O[C@@H](c3ccc4c(N)ncnn34)[C@H](O)[C@@H]2O)cc1 [Compound 14, ((2R,3S,4R,5S)-5-(4-aminopyrrolo[2,1-f][1,2,4]triazin-7-yl)-2-cyano-3,4-dihydroxytetrahydrofuran-2-yl)methyl 4-methylbenzoate] | 23.8 | 9.8 | 22 | 8.17
CC1(C(=O)OC[C@@]2(C#N)O[C@@H](c3ccc4c(N)ncnn34)[C@H](O)[C@@H]2O)CC1 [Compound 15, ((2R,3S,4R,5S)-5-(4-aminopyrrolo[2,1-f][1,2,4]triazin-7-yl)-2-cyano-3,4-dihydroxytetrahydrofuran-2-yl)methyl 1-methylcyclopropane-1-carboxylate] | 31.1 | 22.8 | 31.6 | 50
N#C[C@]1(COC(=O)CC2CCC2)O[C@@H](c2ccc3c(N)ncnn23)[C@H](O)[C@@H]1O [Compound 16, ((2R,3S,4R,5S)-5-(4-aminopyrrolo[2,1-f][1,2,4]triazin-7-yl)-2-cyano-3,4-dihydroxytetrahydrofuran-2-yl)methyl 2-cyclobutylacetate] | 7.15 | 3.14 | 18.3 | 6.99
CC1(C)CC(C(=O)OC[C@@]2(C#N)O[C@@H](c3ccc4c(N)ncnn34)[C@H](O)[C@@H]2O)C1 [Compound 17, ((2R,3S,4R,5S)-5-(4-aminopyrrolo[2,1-f][1,2,4]triazin-7-yl)-2-cyano-3,4-dihydroxytetrahydrofuran-2-yl)methyl 3,3-dimethylcyclobutane-1-carboxylate] | 7.57 | 3.2 | 19.7 | 7.83
N#C[C@]1(COC(=O)C2CCCC2)O[C@@H](c2ccc3c(N)ncnn23)[C@H](O)[C@@H]1O [Compound 18, ((2R,3S,4R,5S)-5-(4-aminopyrrolo[2,1-f][1,2,4]triazin-7-yl)-2-cyano-3,4-dihydroxytetrahydrofuran-2-yl)methyl cyclopentanecarboxylate] | 8.01 | 3.03 | 23.3 | 6.93
N#C[C@]1(COC(=O)C2CCCCC2)O[C@@H](c2ccc3c(N)ncnn23)[C@H](O)[C@@H]1O [Compound 19, ((2R,3S,4R,5S)-5-(4-aminopyrrolo[2,1-f][1,2,4]triazin-7-yl)-2-cyano-3,4-dihydroxytetrahydrofuran-2-yl)methyl cyclohexanecarboxylate] | 9.23 | 4.11 | 18 | 6.84
CC(C)C(=O)OC[C@@]1(C#N)O[C@@H](c2ccc3c(N)ncnn23)[C@H](OC(=O)C(C)C)[C@@H]1OC(=O)C(C)C [Compound 20, (2R,3S,4S,5S)-5-(4-aminopyrrolo[2,1-f][1,2,4]triazin-7-yl)-2-cyano-2-((isobutyryloxy)methyl)tetrahydrofuran-3,4-diyl bis(2-methylpropanoate)] | 50 | 9.63 | 29.9 | 12.8
CC(C)C(=O)O[C@H]1[C@H](c2ccc3c(N)ncnn23)O[C@](C#N)(COC(=O)c2ccccc2)[C@H]1O [Compound 22, ((2R,3S,4R,5S)-5-(4-aminopyrrolo[2,1-f][1,2,4]triazin-7-yl)-2-cyano-3-hydroxy-4-(isobutyryloxy)tetrahydrofuran-2-yl)methyl benzoate] | 33.1 | 12.8 | 32.1 | 15.9
CC(=O)OC[C@@]1(C#N)O[C@@H](c2ccc3c(NC(=O)C(C)C)ncnn23)[C@H](O)[C@@H]1O [Compound 23, ((2R,3S,4R,5S)-2-cyano-3,4-dihydroxy-5-(4-isobutyramidopyrrolo[2,1-f][1,2,4]triazin-7-yl)tetrahydrofuran-2-yl)methyl acetate] | 50 | 33.5 | 33.1 | 49.8
CC1(C(=O)OC[C@@]2(C#N)O[C@@H](c3ccc4c(N)ncnn34)[C@H](O)[C@@H]2O)CCC1 [Compound 24, ((2R,3S,4R,5S)-5-(4-aminopyrrolo[2,1-f][1,2,4]triazin-7-yl)-2-cyano-3,4-dihydroxytetrahydrofuran-2-yl)methyl 1-methylcyclobutane-1-carboxylate] | 8.9 | 3.43 | 12 | 6.34
N#C[C@]1(COC(=O)[C@H]2CCC(=O)O2)O[C@@H](c2ccc3c(N)ncnn23)[C@H](O)[C@@H]1O [Compound 25, ((2R,3S,4R,5S)-5-(4-aminopyrrolo[2,1-f][1,2,4]triazin-7-yl)-2-cyano-3,4-dihydroxytetrahydrofuran-2-yl)methyl (R)-5-oxotetrahydrofuran-2-carboxylate] | 8.31 | 3.13 | 10.3 | 6.01
CC(C)(C)CC(=O)Nc1ncnn2c([C@@H]3O[C@](C#N)(COC(=O)CC(C)(C)C)[C@@H](O)[C@H]3O)ccc12 [Compound 26, ((2R,3S,4R,5S)-2-cyano-5-(4-(3,3-dimethylbutanamido)pyrrolo[2,1-f][1,2,4]triazin-7-yl)-3,4-dihydroxytetrahydrofuran-2-yl)methyl 3,3-dimethylbutanoate] | 50 | 50 | 46.8 | 50
CCC(C)(C)CC(=O)OC[C@@]1(C#N)O[C@@H](c2ccc3c(N)ncnn23)[C@H](O)[C@@H]1O [Compound 27, ((2R,3S,4R,5S)-5-(4-aminopyrrolo[2,1-f][1,2,4]triazin-7-yl)-2-cyano-3,4-dihydroxytetrahydrofuran-2-yl)methyl 3,3-dimethylpentanoate] | 50 | 50 | 12.3 | 50

Source: patent US20240199676A1, “ANTIVIRAL COMPOUNDS AND METHODS OF MAKING AND USING THE SAME” (Gilead Sciences, Inc., priority 2022, published 2024)
